# ChEMBL document CHEMBL6178021, “Optimization of Tambjamines Active against Multiple Stages of Malaria Parasites” (J Med Chem, 2025)
# pIC50: −log10 of the molar value. The source made the active and inactive calls. No cut-off for these calls is given here.
# Key:
# Plasmodium falciparum [1] = assay: Anti-plasmodial activity against Plasmodium falciparum 3D7 infected in erythrocytes assessed as parasite reduction ratio at 0.27 uM measured 22 to 28 days; assay type: functional; conditions: time 22-28 day
# Plasmodium falciparum [2] = assay: Anti-plasmodial activity against Plasmodium falciparum 3D7 infected in erythrocytes assessed as parasite clearance time at 0.27 uM measured 22 to 28 days relative to initial population; assay type: functional; conditions: time 22-28 day
# Plasmodium falciparum [3] = assay: Anti-plasmodial activity against Plasmodium falciparum 3D7 infected in erythrocytes assessed as Lag phase (time to observe the maximal killing effect of the drug) at 0.27 uM; assay type: functional
# [4] = (§1) Cytotoxicity against human HepG2 cells assessed as cell viability measured after 48 hrs by MTT assay; assay type: toxicity, cell-based; conditions: human, HepG2 cells
# Plasmodium berghei [5] = assay: Anti-malarial activity against Luciferase-expressing Plasmodium berghei sporozoites inoculated in po dosed Albino C57BL/6 mouse malaria model assessed as elimination of parasites in liver by measuring bioluminescence signal measured after 48 hrs; assay type: functional, organism-based
# Plasmodium yoelii [6] = assay: Antimalarial activity against erythrocytic Plasmodium yoelii MRA-428 infected in CF1 mouse assessed as reduction in parasitemia at 80 mg/kg, po once daily for 4 days measured on day 5; assay type: functional; design: scale not given: the % may be the effect or the level left; conditions: time 4 day
# [7] = Metabolic stability in human liver microsomes assessed as half life measured up to 60 mins by LC/MS analysis; assay type: ADME, Microsome
# Plasmodium yoelii [8] = assay: Antimalarial activity against erythrocytic Plasmodium yoelii MRA-428 infected in CF1 mouse assessed as reduction in parasitemia at 10 mg/kg, po once daily for 4 days measured on day 5; assay type: functional; design: scale not given: the % may be the effect or the level left; conditions: time 4 day
# Plasmodium yoelii [9] = assay: Antimalarial activity against erythrocytic Plasmodium yoelii MRA-428 infected in CF1 mouse assessed as cured mouse at 80 mg/kg, po once daily for 4 days measured on day 28 day; assay type: functional, organism-based; conditions: time 4.0 day
# Plasmodium falciparum [10] = assay: microbe, parasite or virus in culture; conditions: D6, 72 h
# Description: Antiplasmodial activity against asexual blood-stage Plasmodium falciparum D6 using 2% haematocrit and 0.2% parasitemia assessed as reduction in fluorescence measured after 72 hrs by Malaria SYBR Green I-based Fluorescence (MSF) assay
# Plasmodium yoelii [11] = assay: Antimalarial activity against erythrocytic Plasmodium yoelii MRA-428 infected in CF1 mouse assessed as reduction in parasitemia at 25 mg/kg, po once daily for 4 days measured on day 5; assay type: functional; design: scale not given: the % may be the effect or the level left; conditions: time 4 day
# [12] = Metabolic stability in mouse liver microsomes assessed as half life measured up to 60 mins by LC/MS analysis; assay type: ADME, Microsome
# Plasmodium yoelii [13] = assay: Antimalarial activity against erythrocytic Plasmodium yoelii MRA-428 infected in CF1 mouse assessed as cured mouse at 50 mg/kg, po once daily for 4 days measured on day 28 day; assay type: functional, organism-based; conditions: time 4.0 day
# in vitro [14] = conditions: human
# Description: Selectivity index, ratio of IC50 for cytotoxicity against human HepG2 cells to IC50 for antiplasmodial activity against asexual blood-stage Plasmodium falciparum D6
# Plasmodium falciparum [15] = assay: Antiplasmodial activity against asexual blood-stage Plasmodium falciparum Tm90-C2B using 2% haematocrit and 0.2% parasitemia assessed as reduction in fluorescence measured after 72 hrs by Malaria SYBR Green I-based Fluorescence (MSF) assay; assay type: functional, organism-based
# Plasmodium berghei [16] = assay: Anti-malarial activity against Luciferase-expressing Plasmodium berghei sporozoites inoculated in po dosed Albino C57BL/6 mouse malaria model assessed as elimination of parasites in blood by measuring bioluminescence signal measured after 72 hrs; assay type: functional, organism-based
# Plasmodium yoelii [17] = assay: Antimalarial activity against erythrocytic Plasmodium yoelii MRA-428 infected in CF1 mouse assessed as cured mouse at 10 mg/kg, po once daily for 4 days measured on day 28 day; assay type: functional, organism-based; conditions: time 4.0 day
# Plasmodium falciparum [18] = assay: microbe, parasite or virus in culture; conditions: Dd2, 72 h
# Description: Antiplasmodial activity against asexual blood-stage Plasmodium falciparum Dd2 using 2% haematocrit and 0.2% parasitemia assessed as reduction in fluorescence measured after 72 hrs by Malaria SYBR Green I-based Fluorescence (MSF) assay
# Plasmodium yoelii [19] = assay: Antimalarial activity against erythrocytic Plasmodium yoelii MRA-428 infected in CF1 mouse assessed as reduction in parasitemia at 50 mg/kg, po once daily for 4 days measured on day 5; assay type: functional; design: scale not given: the % may be the effect or the level left; conditions: time 4 day
# Plasmodium yoelii [20] = assay: Antimalarial activity against erythrocytic Plasmodium yoelii MRA-428 infected in CF1 mouse assessed as cured mouse at 25 mg/kg, po once daily for 4 days measured on day 28 day; assay type: functional, organism-based; conditions: time 4.0 day
# [21] = Apparent oral clearance in ICR-CD1 mouse liver at 40 mg/kg, po; assay type: ADME, organism-based
# HepG2 = assay: as §1; assay type: toxicity, cell-based; conditions: hepg2
# [22] = Half life in ICR-CD1 mouse plasma at 40 mg/kg, po; assay type: ADME, organism-based
# Plasmodium falciparum [23] = assay: Anti-plasmodial activity against ART-resistant Plasmodium falciparum DR1 assessed as growth inhibition measured after 72 hrs by Malaria SYBR Green I-based Fluorescence (MSF) assay; assay type: functional, organism-based; conditions: DR1, 72 h
# [24] = Toxicity in CF1 mouse infected with erythrocytic Plasmodium yoelii MRA-428 assessed as adverse event at 10 to 80 mg/kg, po once daily for 4 days measured on day 28 day; assay type: organism-based; conditions: in vivo, 96 h, dose 10-80 mg/kg, time 4 day
# in vitro [25] = conditions: mouse, liver microsomes
# [26] = Mutagenicity in Salmonella typhimurium TA98 at 10 uM by Ames test; assay type: toxicity; conditions: salmonella enterica subsp. enterica serovar typhimurium
# [27] = Chemical stability of the compound assessed as half life in acetate buffer at pH 4.5; assay type: physicochemical
# Plasmodium falciparum [28] = assay: Anti-plasmodial activity against Plasmodium falciparum Dd2 assessed as growth inhibition measured after 72 hrs by Malaria SYBR Green I-based Fluorescence (MSF) assay; assay type: functional, organism-based; conditions: Dd2, 72 h
# [29] = Half life in ICR-CD1 mouse liver at 40 mg/kg, po; assay type: ADME, organism-based
# Plasmodium falciparum [30] = assay: Anti-plasmodial activity against Plasmodium falciparum 3D7 infected in erythrocytes assessed as Lag phase (time to observe the maximal killing effect of the drug) at 1.188 uM; assay type: functional
# MDR1 (human) [31] = assay: Apparent permeability across basolateral to apical side in MDCK transfected with human MDR1 cells incubated for 1 hr by LC-MS analysis; conditions: dog, MDCK-MDR1
# Plasmodium falciparum [32] = assay: Anti-plasmodial activity against Plasmodium falciparum 3D7 infected in erythrocytes assessed as parasite reduction ratio at 1.188 uM measured 22 to 28 days; assay type: functional; conditions: time 22-28 day
# [33] = Cmax in ICR-CD1 mouse plasma at 40 mg/kg, po; assay type: ADME, organism-based
# [34] = MRTlast in ICR-CD1 mouse liver at 40 mg/kg, po; assay type: ADME, organism-based
# [35] = Tmax in ICR-CD1 mouse plasma at 40 mg/kg, po; assay type: ADME, organism-based
# [36] = AUCextrap (extrapolated from the last observed time point) in ICR-CD1 mouse liver at 40 mg/kg, po; assay type: ADME, organism-based; conditions: in vivo
# [37] = biological target: Voltage-gated inwardly rectifying potassium channel KCNH2 (Homo sapiens, UniProt Q12809); assay: Inhibition of hERG expressed in CHO cells by Whole cell patch clamp assay; assay type: toxicity, cell-based
# [38] = AUCextrap (extrapolated from the last observed time point) in ICR-CD1 mouse plasma at 40 mg/kg, po; assay type: ADME, organism-based; conditions: in vivo
# [39] = Tmax in ICR-CD1 mouse liver at 40 mg/kg, po; assay type: ADME, organism-based
# Plasmodium berghei [40] = assay: Anti-malarial activity against Luciferase-expressing Plasmodium berghei sporozoites inoculated in Albino C57BL/6 mouse malaria model assessed as reduction in parasites in liver at 40 mg/kg, po by measuring bioluminescence signal measured after 48 hrs relative to control; assay type: functional; design: scale not given: the % may be the effect or the level left
# MDR1 (human) [41] = assay: Apparent permeability across apical to basolateral side in MDCK transfected with human MDR1 cells incubated for 1 hr by LC-MS analysis; conditions: dog, MDCK-MDR1
# in vitro [42] = conditions: human, liver microsomes
# [43] = Chemical stability of the compound assessed as half life in PBS buffer at pH 7.4; assay type: physicochemical
# Plasmodium falciparum [44] = assay: Anti-plasmodial activity against Plasmodium falciparum 3D7 infected in erythrocytes assessed as parasite clearance time at 1.188 uM measured 22 to 28 days relative to initial population; assay type: functional; conditions: time 22-28 day
# [45] = Apparent oral clearance in ICR-CD1 mouse plasma at 40 mg/kg, po; assay type: ADME, organism-based; conditions: in vivo
# Plasmodium berghei [46] = assay: Anti-malarial activity against Luciferase-expressing Plasmodium berghei sporozoites inoculated in Albino C57BL/6 mouse malaria model assessed as reduction in parasites in liver at 40 mg/kg, po by measuring bioluminescence signal measured after 72 hrs relative to control; assay type: functional; design: scale not given: the % may be the effect or the level left
# [47] = AUClast in ICR-CD1 mouse liver at 40 mg/kg, po; assay type: ADME, organism-based
# [48] = Toxicity in Albino C57BL/6 mouse inoculated with Luciferase-expressing Plasmodium berghei sporozoites at 40 mg/kg, po; assay type: organism-based; conditions: in vivo
# [49] = AUCinf in ICR-CD1 mouse plasma at 40 mg/kg, po; assay type: ADME, organism-based; conditions: in vivo
# [50] = Chemical stability of the compound assessed as half life in PBS buffer at pH 6.6 to 9; assay type: physicochemical
# [51] = Mutagenicity in Salmonella typhimurium TA98 with S9 fraction at 10 uM by Ames test; assay type: toxicity, subcellular; conditions: salmonella enterica subsp. enterica serovar typhimurium, s9, 10 µM
# [52] = MRTlast in ICR-CD1 mouse plasma at 40 mg/kg, po; assay type: ADME, organism-based
# Plasmodium berghei [53] = assay: Anti-malarial activity against Luciferase-expressing Plasmodium berghei sporozoites inoculated in Albino C57BL/6 mouse malaria model assessed as increase in survival time at 40 mg/kg, po relative to control; assay type: functional
# [54] = AUCinf in ICR-CD1 mouse liver at 40 mg/kg, po; assay type: ADME, organism-based
# [55] = AUClast in ICR-CD1 mouse plasma at 40 mg/kg, po; assay type: ADME, organism-based
# Plasmodium falciparum [56] = assay: Anti-plasmodial activity against ART-resistant Plasmodium falciparum DR4 assessed as growth inhibition measured after 72 hrs by Malaria SYBR Green I-based Fluorescence (MSF) assay; assay type: functional, organism-based; conditions: DR4, 72 h
# Chain of Voltage-gated inwardly rectifying potassium channel KCNH2 (Q12809 whole entry): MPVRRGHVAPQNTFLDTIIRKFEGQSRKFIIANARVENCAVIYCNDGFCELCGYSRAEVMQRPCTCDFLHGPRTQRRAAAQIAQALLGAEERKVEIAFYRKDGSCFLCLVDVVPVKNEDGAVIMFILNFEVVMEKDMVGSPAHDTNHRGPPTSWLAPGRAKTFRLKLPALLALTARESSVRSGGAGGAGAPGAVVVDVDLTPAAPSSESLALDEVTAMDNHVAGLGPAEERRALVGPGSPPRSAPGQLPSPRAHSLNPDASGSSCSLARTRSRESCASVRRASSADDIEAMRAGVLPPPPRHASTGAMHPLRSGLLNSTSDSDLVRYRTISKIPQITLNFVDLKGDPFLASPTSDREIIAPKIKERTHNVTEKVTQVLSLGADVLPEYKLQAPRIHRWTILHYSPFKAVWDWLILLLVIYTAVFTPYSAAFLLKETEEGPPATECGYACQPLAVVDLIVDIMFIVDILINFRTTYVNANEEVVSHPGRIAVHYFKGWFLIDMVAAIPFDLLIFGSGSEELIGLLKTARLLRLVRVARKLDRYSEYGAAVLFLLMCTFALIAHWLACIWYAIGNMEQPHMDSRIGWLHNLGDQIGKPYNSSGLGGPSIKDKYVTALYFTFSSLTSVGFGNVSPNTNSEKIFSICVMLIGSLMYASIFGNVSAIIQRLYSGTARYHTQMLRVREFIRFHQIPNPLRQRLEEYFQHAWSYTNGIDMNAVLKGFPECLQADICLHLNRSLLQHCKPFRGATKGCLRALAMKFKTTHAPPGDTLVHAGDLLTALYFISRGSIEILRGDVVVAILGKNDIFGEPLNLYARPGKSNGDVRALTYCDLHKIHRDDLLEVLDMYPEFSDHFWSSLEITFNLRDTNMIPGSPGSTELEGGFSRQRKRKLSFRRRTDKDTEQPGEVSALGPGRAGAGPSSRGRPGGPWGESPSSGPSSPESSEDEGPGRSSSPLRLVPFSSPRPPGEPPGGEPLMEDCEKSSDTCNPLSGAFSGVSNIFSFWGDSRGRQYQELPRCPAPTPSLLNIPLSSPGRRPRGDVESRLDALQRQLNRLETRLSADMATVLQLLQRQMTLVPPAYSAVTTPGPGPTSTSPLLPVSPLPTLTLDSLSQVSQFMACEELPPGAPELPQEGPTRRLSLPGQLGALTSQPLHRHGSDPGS
smiles,measurement,setting,value
CCc1nc(N)nc(N)c1-c1ccc(Cl)cc1 [PYRIMETHAMINE],log(activity),Plasmodium falciparum [1],3.49
same,T99.9%,Plasmodium falciparum [2],54 h
same,Time,Plasmodium falciparum [3],24 h
CCC1=C(C)/C(=C/NC2CCCCCC2)N=C1c1ccc[nH]1,IC50 at 48 h,[4],19200 nM
same,Activity,Plasmodium berghei [5],inactive
same,Activity,Plasmodium yoelii [6],100%
same,half-life,[7],0.295 h
same,Activity,Plasmodium yoelii [8],100%
same,Activity,Plasmodium yoelii [9],Active; Two Mouse Cured Out Of Four
same,pIC50,Plasmodium falciparum [10],7.21
same,Activity,Plasmodium yoelii [11],100%
same,half-life,[12],0.168 h
same,Activity,Plasmodium yoelii [13],Active; Four Mouse Cured Out Of Four
same,selectivity ratio,in vitro [14],309
same,pIC50,Plasmodium falciparum [15],7.42
same,Activity,Plasmodium berghei [16],inactive
same,Activity,Plasmodium yoelii [17],Not active; None Of The Mouse Cured Out Of Four Tested
same,pIC50,Plasmodium falciparum [18],7.26
same,Activity,Plasmodium yoelii [19],100%
same,Activity,Plasmodium yoelii [20],Active; Four Mouse Cured Out Of Four
CCC1=C(CC)/C(=C/NC2CCCCC2)N=C1c1ccc(C)[nH]1,CL/F,[21],10.8 mL/min/kg
same,pIC50,HepG2,5.12
same,half-life,[22],5.64 h
same,pIC50,Plasmodium falciparum [23],7.79
same,Activity,[24],Non-toxic
same,microsomal CLint at 1 h,in vitro [25],19.9 µL/min/mg
same,Activity,Plasmodium berghei [5],Dose-dependent-effect
same,Activity,Plasmodium yoelii [6],100%
same,Activity,[26],Non-toxic
same,half-life,[27],≥ 3.33 h
same,pIC50,Plasmodium falciparum [28],7.86
same,half-life,[7],0.978 h
same,Activity,Plasmodium yoelii [8],88.6%
same,Activity,Plasmodium yoelii [9],Active; Four Mouse Cured Out Of Four
same,half-life,[29],5.07 h
same,Time,Plasmodium falciparum [30],0 h
same,Papp B→A at 1 h,MDR1 (human) [31],0.002 ×10⁻⁶ cm/s
same,log(activity),Plasmodium falciparum [32],3.83
same,Cmax,[33],1440 ng/mL
same,MRT last,[34],31.6 h
same,Tmax,[35],30 h
same,%AUCextra,[36],0.5%
same,pIC50,[37],5.36
same,IC20,"[37]; human, cho",1900 nM
same,%AUCextra,[38],0.83%
same,Tmax,[39],30 h
same,Activity,Plasmodium berghei [40],72%
same,Papp A→B at 1 h,MDR1 (human) [41],0.013 ×10⁻⁶ cm/s
same,Activity,Plasmodium yoelii [11],100%
same,half-life,[12],> 1 h
same,microsomal CLint at 1 h,in vitro [42],23.6 µL/min/mg
same,pIC50,Plasmodium falciparum [15],7.74
same,t1/2,[43],4.5 h
same,T99.9%,Plasmodium falciparum [44],39.5 h
same,CL/F,[45],0.312 mL/min/kg
same,Activity,Plasmodium berghei [16],Dose-dependent-effect
same,pIC50,Plasmodium falciparum [18],8.09
same,Activity,Plasmodium berghei [46],97%
same,AUC(0-t),[47],1960 ng·h/mL
same,Activity,[48],Non-toxic
same,AUC,[49],68123 ng·h/mL
same,half-life,[50],≥ 3.33 h
same,Activity,[51],Non-toxic
same,MRT last,[52],31.5 h
same,Survival,Plasmodium berghei [53],3 days
same,AUC(0-inf),[54],1980 ng·h/mL
same,Activity,Plasmodium yoelii [20],Active; Four Mouse Cured Out Of Four
same,AUC(0-t),[55],67600 ng·h/mL
same,pIC50,Plasmodium falciparum [56],7.85
